Measured values: patent US10961301B2, “Cell-penetrating anti-DNA antibodies and uses thereof inhibit DNA repair” (Yale University, priority 2011, dated 2021)

Legend:
[1] = test system: BRCA2-deficient PEO1 ovarian cancer cells; settings: 3 days after treatment; 3 nM doxorubicin, 10 μM 3E10
[2] = test system: BRCA2-proficient PEO1 C4-2 ovarian cancer cells; settings: 3 days after treatment; 3 nM doxorubicin, 10 μM 3E10

COc1cccc2c1C(=O)c1c(O)c3c(c(O)c1C2=O)C[C@@](O)(C(=O)CO)C[C@@H]3O[C@H]1C[C@H](N)[C@H](O)[C@H](C)O1 [doxorubicin]
cell death, BRCA2-deficient cells [1]: not significantly toxic | cell death, BRCA2-proficient cells [2]: not significantly toxic
